{
  "source": "patent US7091205B2",
  "about": "“Use of tetramethylpyrazine in the treatment of brain tumor” (priority 2004, dated 2006)",
  "key": {"glioma cells": {"tested_on": "glioma cells", "conditions": "Ishiuchi et al., 2002; cited from earlier work"}, "rat C6 glioma cell line [1]": {"tested_on": "rat C6 glioma cell line", "test": "Determination of cell death by propidium iodide fluorescence (flow cytometry)", "format": "cell-based", "conditions": "200 μM and 400 μM TMP, 24 hours; p<0.05 vs control; FIG. 1", "procedure": "(§1) The rat C6 glioma cell line was purchased from the Food Industry Research and Development Institute, Taiwan. The cell culture within the tubes was transferred into a 15 ml centrifugation tube and centrifuged at 900 rpm for 3 minutes. Resulted supernatant was removed and 4 ml 10% FBS-DMEM was added to the centrifugation tube and sufficiently mixed with the cell pellet. The cells were counted and cultured in a 24-well plate (2×10^4 cells per well) for subsequent in vitro experiments.\n(§2) The cultured C6 glioma cells were treated with TMP (Fluka, F-87915) at final concentrations of 50 μM, 100 μM, 200 μM, and 400 μM for 24 hours.\nThe degree of damage to glioma cells was measured as the intensity of propidium iodide (PI) fluorescence. PI is a fluorescent dye that binds DNA, with an excitation wavelength of 485 nm and an emission wavelength of 620 nm. When a cell is damaged, the permeability of the cell membrane is increased and PI can enter the cell to bind DNA.\nThe TMP-treated glioma cells were treated with 5 ng/ml PI (Molecular Probes, P-1304) for 1 hour, and then washed with 0.1 M PBS. The intensity of PI fluorescence was read by flow cytometry (FACSort)."}, "rat C6 glioma cell line [2]": {"tested_on": "rat C6 glioma cell line", "test": "Determination of Ca2+ permeability (Fura-2 AM, glutamate-induced Ca2+ increase)", "format": "cell-based", "conditions": "50 μM to 400 μM TMP, 24 hours; 200 μM glutamate for 20 seconds; p<0.05 vs control; FIG. 2", "procedure": "as §1, §2\nThe TMP-treated glioma cells were washed with running buffer for three times, put in a 5 μM Fura-2 AM solution for 30 minutes, and treated with 200 μM glutamate for 20 seconds. The change of Ca^2+ concentration within glioma cells was observed on a fluorescence microscope (IX-70, Olympus, Japan)."}, "rat C6 glioma cell line [3]": {"tested_on": "rat C6 glioma cell line", "test": "Determination of cell cycle (PI staining, flow cytometry)", "format": "cell-based", "conditions": "400 μM TMP, 24 hours; p<0.05 vs control; FIG. 3", "procedure": "as §1, §2\nThe TMP-treated glioma cells were treated with trypsin/EDTA (Biochrom AG, L-2153), shaken off, collected in a 15 ml centrifugation tube, and centrifuged at 900 rpm for 3 minutes. The resulting supematant was removed and 1 ml PI solution (50 μg/ml PI, 0.1% sodium citrate, and 0.1% Triton X-100) was added. After one hour of dark incubation at room temperature, the intensity of PI fluorescence was read by flow cytometry (FACSort). In the G2/M phase, DNA has been replicated, and thus the intensity of PI fluorescence of cells in the G2/M phase should be two times of that of cells in the G1 phase."}, "[4]": {"tested_on": "glioma cells implanted in frontal cortex of Sprague-Dawley rats", "test": "Survival time of rats implanted with glioma cells", "format": "in vivo, rat", "conditions": "0.4 mg subcutaneous twice a day from the 8th day following implantation", "procedure": "(§3) Sprague-Dawley (S.D.) rats obtained from the Animal Center of National Yang-Ming University were kept in the following conditions: 12 hours of artificial lightening per day; 22±2° C. air conditioning; sufficient water and food. Eight-week old female rats, weighing 250 to 300 g, were used in the experiments.\n(§4) The rats were anesthetized with chloride hydrate (400 mg/Kg, i.p.) and immobilized on a stereotaxic apparatus (Narishige, Japan). The skin on the head was cut with scissors to expose the skull. Bregma was found as the reference point for the location of microinjection (three-dimensional orientation point: A: 0.7 mm, L; 2.0 mm, H: 2.0 mm). The location was marked with a pen, and the skull at the location was drilled with a drill. Glioma cells (10^6 cells) were injected (2 μl/3 mins; total 10 μl) into the frontal cortex of the left brain of the rats with a microinjector.\n(§5) The rats were divided into two groups. […] The rats of the TMP group received TMP treatment (0.4 mg, subcutaneous injection, twice a day) from the 8th day following the implantation. The survival days of rats of the two groups were recorded."}, "[5]": {"tested_on": "glioma cells implanted in frontal cortex of Sprague-Dawley rats", "test": "Activity of glioma by micro positron emission tomography (18F-FDG)", "format": "in vivo", "conditions": "15th day following implantation; one rat; TMP from the 8th day; highly activated tumor still exists in control rat; FIG. 6 D to F", "procedure": "as §3, §4, §5\nTo determine the activity of glioma cells in the rats, the activity profiles of the tumors were obtained by micro positron emission tomography (micro PET) on the 8th and 15th day following the implantation of glioma cells. […]"}, "[6]": {"conditions": "Tsai and Liang, 2001; cited from earlier work"}, "[7]": {"conditions": "Pang et al., 1996; cited from earlier work"}, "neurons": {"tested_on": "neurons", "conditions": "through protecting mitochondria and inhibiting free radical generation; Shih et al, 2002; cited from earlier work"}},
  "data": [
    {"smiles": "C[C@]12N[C@H](Cc3ccccc31)c1ccccc12", "note": "[MK801]", "values": [
      {"measurement": "proliferation of glioma cells", "setting": "glioma cells", "result": "can effectively inhibit the proliferation of glioma cells"}
    ]},
    {"smiles": "Cc1nc(C)c(C)nc1C", "note": "[TMP, tetramethylpyrazine]", "values": [
      {"measurement": "damage to glioma cells (intensity of PI fluorescence)", "setting": "rat C6 glioma cell line [1]", "result": "resulted in glioma cell death"},
      {"measurement": "Ca2+ concentration within glioma cells resulting from treatment with glutamate", "setting": "rat C6 glioma cell line [2]", "result": "effectively reduced Ca^2+ concentration within glioma cells"},
      {"measurement": "ratio of cells in the G2/M phase", "setting": "rat C6 glioma cell line [3]", "result": "effectively reduced the ratio of cells in the G2/M phase"},
      {"measurement": "survival time following implantation, half of the rats of the TMP group", "setting": "[4]; FIG. 4(B)", "result": 40, "unit": "days"},
      {"measurement": "survival time following implantation, all rats of the TMP group", "setting": "[4]; control rats died after 15 to 22 days, FIG. 4", "result": "at least 22 days"},
      {"measurement": "micro PET image of tumor activity", "setting": "[5]", "result": "no image of a highly activated tumor"},
      {"measurement": "crossing of the blood-brain barrier", "setting": "[6]", "result": "can cross the blood-brain barrier"},
      {"measurement": "increase of the concentration of calcium", "setting": "[7]", "result": "can inhibit the increase of the concentration of calcium"},
      {"measurement": "excitotoxicity to neurons induced by kainite", "setting": "neurons", "result": "can reduce the excitotoxicity to neurons induced by kainite"}
    ]}
  ]
}
